From US8067015B2, “Methods and compositions for the treatment and prevention of Staphylococcus and other bacterial infections” (priority 1997, dated 2011)
Like-named read-outs stand apart in the source and are kept apart here. Where no end group is shown, it is not given here.

What was measured:
[1] = test system: S. epidermidis MRSE strain; assay: Rat subcutaneous Dacron graft infection model, MRSE strain; type: in vivo; conditions: for Bacterial concentration, MRSE: 2×10^7 bacteria, explanted day 7; for Bacterial concentration, MRSE / Bacterial load on graft, MRSE: mean ± SD; for Bacterial load on graft, MRSE: Table 3A S. epidermidis
Experimental: (§1) Rats (Wistar adult males (300-350 g), n=15/experimental group) were anaesthetized, hair on their back shaved and the skin cleansed with 10% povidone-iodine solution. A subcutaneous pocket was made on the side of the median line by a 1.5 cm incision. Aseptically, 1 cm^2 sterile collagen-sealed Dacron graft (Albograft™, Sorin Biomedica Cardio, S.p.A., Saluggi VC, Italy) was implanted into the pocket. […] Pockets were closed by skin clips and 1 ml sterile saline solution with or without 2×10^7 bacteria was inoculated onto the graft surface using a tuberculin syringe to create a subcutaneous fluid-filled pocket. Some of the animals that had grafts soaked only with RIP or saline were injected intraperitoneally with antibiotics (cefazolin 30 mg/kg, imipenem 30 mg/kg, teicoplanin 10 mg/kg, levofloxacin 10 mg/kg). Grafts were explanted 7 days following implantation.
(§2) The explanted grafts were placed in sterile tubes, washed in sterile saline solution, placed in tubes containing 10 ml of phosphate-buffered saline solution and sonicated for 5 min to remove the adherent bacteria from the grafts. Quantitation of viable bacteria was performed by culturing serial 10-fold dilutions (0.1 ml) of the bacterial suspension on blood agar plates. All plates were incubated at 37° C. for 48 hr and evaluated for the presence of the strain. Bacteria were quantitated by counting the number of colony forming unites (CFU) per plate. To determine if bacteria were efficiently removed from the graft, washed and sonicated grafts were observed under a Nikon Eclipse E 600 optical microscope (Nikon Y-THS, Japan).
(§3) Quantitative culture results of the in vivo experiments were presented as mean+SD of the mean. Comparisons of the results were performed by the analysis of variance (ANOVA) on the log-transformed data. Statistical analysis was performed for in vitro adhesion assays using Student's t-Test by Microsoft Excel (Microsoft, Wash.). Significance was accepted when the P value was <0.05.
(§4) To test if RIP can prevent graft-associated infections, Dacron grafts were coated with or without RIP, and with or without various types of antibiotics (for local prophylaxis experiments). Coated grafts were implanted in rats, bacteria injected into the implants, implants removed after a week, and bacterial load determined. Alternatively, Dacron grafts were first coated with RIP, bacteria injected, and antibiotics were administered by the intraperitoneal route (for parenteral prophylaxis experiments). As a negative control, grafts were implanted without local or parenteral RIP/antibiotics prophylaxis and no bacteria were injected. As a positive control, grafts were implanted, bacteria were injected, but no RIP/antibiotics prophylaxis was given.
Animals (15/group) received a Dacron-graft implanted in a subcutaneous pocket. Graft was subsequently infected with either S. epidermidis (tested on MSSE, MRSE and GISE) or with S. aureus (tested on MSSA, MRSA and GISA). The Dacron-graft prior to implantation was soaked in saline with or without 20 mg/l of RIP and some animals received […] of RIP i.p. as a prophylaxis treatment.

[2] = test system: RNAIII; conditions: cited from earlier work
[3] = test system: S. epidermidis (all strains tested); assay: Rat subcutaneous Dacron graft infection model, all strains tested (GISE, MRSE, MSSE); type: in vivo; conditions: RIP-coated graft
Experimental: as §1, with “Some of the animals that had grafts soaked only with RIP or saline were injected intraperitoneally with antibiotics (cefazolin 30 mg/kg, imipenem 30 mg/kg, teicoplanin 10 mg/kg, levofloxacin 10 mg/kg). Grafts were explanted 7 days following implantation.” left out
The explanted grafts were placed in sterile tubes, washed in sterile saline solution, placed in tubes containing 10 ml of phosphate-buffered saline solution and sonicated for 5 min to remove the adherent bacteria from the grafts. Quantitation of viable bacteria was performed by culturing serial 10-fold dilutions (0.1 ml) of the bacterial suspension on blood agar plates. All plates were incubated at 37° C. for 48 hr and evaluated for the presence of the strain. Bacteria were quantitated by counting the number of colony forming unites (CFU) per plate. […]
Quantitative culture results of the in vivo experiments were presented as mean+SD of the mean. […]

[4] = test system: S. aureus LS-1; conditions: mice; cited from earlier work
[5] = test system: S. epidermidis GISE strain; assay: Rat subcutaneous Dacron graft infection model, GISE strain; type: in vivo; conditions: for Bacterial concentration, GISE: 2×10^7 bacteria, explanted day 7; for Bacterial concentration, GISE / Bacterial load on graft, GISE: mean ± SD; for Bacterial load on graft, GISE: Table 3A S. epidermidis
Experimental: as §1, §2, §3, §4
Animals (15/group) received a Dacron-graft implanted in a subcutaneous pocket. Graft was subsequently infected with either S. epidermidis (tested on MSSE, MRSE and GISE) or with S. aureus (tested on MSSA, MRSA and GISA). […]

[6] = test system: S. aureus MS; conditions: rabbits; cited from earlier work
[7] = test system: S. aureus Smith Diffuse; conditions: mice; cited from earlier work
[8] = test system: S. aureus Newbould 305, AE-1, and environmental infections; conditions: cows; cited from earlier work
[9] = test system: TRAP; conditions: 1 hr
Experimental: S. aureus (right panel) and S. epidermidis (left panel) were in vivo phosphorylated for 1 hr in the presence or absence of RIP. Total cell homogenate was separated by SDS PAGE and the gel was autoradiographed.
To test for TRAP phosphorylation in S. epidermidis, in vivo phosphorylation assays were carried out as described for S. aureus. Briefly, early exponential S. epidermidis were grown in the presence of phosphate-free buffer supplemented with radiolabeled orthophosphate with or without RIP (10 μg/10^7 cells). After a 1 hr incubation period, the cells were collected by centrifugation, treated with lysostaphin followed by the addition of sample buffer, and total cell homogenate was applied without boiling to 15% SDS PAGE and the gel autoradiographed. The same experiment was carried out on 6390B S. aureus cells as a positive control.

[10] = test system: S. epidermidis adherence to polystyrene; assay: Adherence and biofilm formation of S. epidermidis on polystyrene (safranin); type: cell-based; conditions: polystyrene microtiter plates, 3 hrs
Experimental: FIG. 14B is a graph depicting adherence in the presence of RIP RIP+ and in the absence of RIP RIP−. S. epidermidis were grown in polystyrene plates for 3 hrs, adherent bacteria were stained by safranin, and absorbance at 490 nm was determined.
To test whether RIP reduces adherence and biofilm formation of S. epidermidis to plastic, early exponential S. epidermidis were grown for 3 hrs in microtiter plates made of polystyrene, and adherent cells were stained with safranin. These experimental conditions allow for biofilm to be formed (as observed by atomic force microscopy, not shown).

[11] = A. Local prophylaxis: graft soaked 20 min in RIP 10 mg/l and/or antibiotic (mupirocin 100, quinupristin-dalfopristin 50, levofloxacin 30, rifampin 5 mg/l), rats
[12] = B. Parenteral prophylaxis: antibiotic intraperitoneally (cefazolin 30, imipenem 30, teicoplanin 10, levofloxacin 10 mg/kg), RIP as 10 mg/l graft soak, rats
[13] = RIP local (graft soaked in 20 mg/l RIP)
[14] = RIP parenteral (10 mg/l RIP i.p.)
[15] = peptide-soaked/coated Dacron graft (RIP 10 mg/l), no antibiotic, rats, day 7

YSPWTNF(—NH2) (YSPWTNF-NH2) [RIP]
Bacterial concentration, MRSE [1, 11]: 0.74 ± 0.18 ×10^4 CFU/ml
Bacterial concentration, MRSE [1, 12]: 0.74 ± 0.18 ×10^4 CFU/ml
Bacterial load on graft, MRSE [1, 13]: 0.087 ± 0.023 ×10^4 CFU/ml
Bacterial load on graft, MRSE ([1]; RIP local + RIP parenteral): 0.00 ± 0 ×10^4 CFU/ml
Bacterial load on graft, MRSE [1, 14]: 0.052 ± 0.017 ×10^4 CFU/ml
Quantitative culture results of explanted graft, MRSE strain [1, 15]: 7.4×10^3±1.8×10^3 CFU/ml
Inhibiting RNAIII in vitro [2]: extremely effective
Reduction of bacterial load [3]: 3 log
Suppressing S. aureus infection: septic arthritis [4]: extremely effective
Bacterial concentration, GISE [5, 11]: 6.2 ± 2.4 ×10^4 CFU/ml
Bacterial concentration, GISE [5, 12]: 6.2 ± 2 ×10^4 CFU/ml
Bacterial load on graft, GISE [5, 13]: 0.46 ± 0.13 ×10^4 CFU/ml
Bacterial load on graft, GISE ([5]; RIP local + RIP parenteral): 0.00 ± 0 ×10^4 CFU/ml
Bacterial load on graft, GISE [5, 14]: 0.31 ± 0.6 ×10^4 CFU/ml
Quantitative culture results of explanted graft, GISE strain [5, 15]: 6.2×10^4±2.0×10^4 CFU/ml
RIP graft treatment inhibiting bacteria better than parenteral antibiotics prophylaxis ([5]; rats inoculated with GISE): 10 to 100 fold
Suppressing S. aureus infection: osteomyelitis [6]: extremely effective
Suppressing S. aureus infection: cellulitis [7]: extremely effective
Suppressing S. aureus infection: mastitis [8]: extremely effective
TRAP phosphorylation ([9]; RIP 10 μg/10^7 cells, S. epidermidis): can be inhibited
TRAP phosphorylation ([9]; in presence or absence of RIP, S. aureus): inhibits TRAP phosphorylation
Number of cells that adhered to the plastic [10]: significantly reduced
